Results as given in patent publication US20040254162A1, “Oxazolidinone derivatives as antimicrobials” (priority 2001, published 2004).
≈ marks a conversion by molar mass, not a printed value.

Legend:
MRSA 33 = assay: MIC, agar incorporation method; conditions: Staphylococcus aureus, MRSA, read-out: MIC MRSA 33
[1] = tested on: Peptostreptococcus tetradius; assay: Agar dilution MIC, anaerobes; type: cell-based; conditions: Anaerococcus tetradius, single isolates, anaerobic agar dilution; read-out: MIC Peptostreptococcus tetradius
[2] = tested on: Peptostreptococcus asaccharolyticus; assay: Agar dilution MIC, anaerobes; type: cell-based; conditions: single isolates, anaerobic agar dilution
S. pneumoniae = assay: Summary of in vitro activity (MIC); conditions: Streptococcus pneumoniae
Clostridium camis = assay: Agar dilution MIC, anaerobes; type: cell-based; conditions: Clostridium; single isolates, anaerobic agar dilution; read-out: MIC Clostridium camis
MRSA 562 = assay: In vivo activity against MRSA 562 (ED50); set-up: species or system Methicillin Resistant Staphylococcus aureus; conditions: PO; MRSA 562 infection
[3] = tested on: Peptostreptococcus micros; assay: Agar dilution MIC, anaerobes; type: cell-based; conditions: single isolates, anaerobic agar dilution
[4] = tested on: Prevotella (Bacteroides) disiens; assay: Agar dilution MIC, anaerobes; type: cell-based; conditions: single isolates, anaerobic agar dilution; read-out: MIC Prevotella (Bacteroides) disiens
E. faecalis = assay: Summary of in vitro activity (MIC); conditions: Enterococcus faecalis
[5] = tested on: MRSE 879 adherent bacteria; assay: Sintered glass adherent bacteria model; conditions: MRSE 879, sintered glass adherent bacteria model
[6] = tested on: Mycobacterium tuberculosis
Fusobacterium montiferum = assay: Agar dilution MIC, anaerobes; type: cell-based; conditions: Fusobacterium, single isolates, anaerobic agar dilution; read-out: MIC Fusobacterium montiferum
Clostridium difficile = assay: Agar dilution MIC, anaerobes; type: cell-based; conditions: Clostridioides difficile, single isolates, anaerobic agar dilution; read-out: MIC Clostridium difficile
[7] = Changes in MIC under different conditions: agar MIC; type: cell-based; conditions: strain not given
S. aureus ATCC 25923 = assay: MIC, agar incorporation method; conditions: Staphylococcus aureus, ATCC25923, read-out: MIC S. aureus 25923
Eubacterium leutum = assay: Agar dilution MIC, anaerobes; type: cell-based; conditions: Eubacterium, single isolates, anaerobic agar dilution; read-out: MIC Eubacterium leutum
Fusobacterium necrogenes = assay: Agar dilution MIC, anaerobes; type: cell-based; conditions: Fusobacterium necrogenes; single isolate, anaerobic agar dilution; read-out: MIC Fusobacterium necrogenes
Strep. pyog. ATCC 19615 = assay: MIC, agar incorporation method; conditions: Streptococcus pyogenes, ATCC19615, read-out: MIC S. pyogenes 19615
Prevotella intermedia = assay: Agar dilution MIC, anaerobes; type: cell-based; conditions: single isolates, anaerobic agar dilution
[8] = in vivo; cited from earlier work
S. pneum AB 34 = assay: MIC, agar incorporation method; conditions: Streptococcus pneumoniae, AB34, read-out: MIC S. pneum AB 34
[9] = tested on: clinically relevant gram positive pathogens; conditions: nearly all clinically relevant gram positive pathogens; cited from earlier work
Strep. pne. ATCC 6303 = assay: MIC, agar incorporation method; conditions: Streptococcus pneumoniae, ATCC6303, read-out: MIC S. pneum 6303
[10] = tested on: Mycobacterium avium intracellulare; assay: Agar dilution method, mycobacteria; type: cell-based
P. acnes = assay: Agar dilution MIC, anaerobes; type: cell-based; conditions: Cutibacterium acnes, single isolates, anaerobic agar dilution; read-out: MIC P. acnes
Ent. faecalis ATCC 29212 = assay: MIC, agar incorporation method; conditions: Enterococcus faecalis, ATCC29212, read-out: MIC E. faecalis 29212
G +ve bacteria = assay: Summary of in vitro activity (MIC)
MRSA 15187 = assay: MIC, agar incorporation method; conditions: Staphylococcus aureus, MRSA, read-out: MIC MRSA 15187
[11] = tested on: Porphyromonas asaccharolytica; assay: Agar dilution MIC, anaerobes; type: cell-based; conditions: Porphyromonas asaccharolytica; single isolate, anaerobic agar dilution; read-out: MIC Porphyromonas asaccharolytica
Porphyromonas gingivalis = assay: Agar dilution MIC, anaerobes; type: cell-based; conditions: Porphyromonas gingivalis; single isolate, anaerobic agar dilution; read-out: MIC Porphyromonas gingivalis
[12] = tested on: Peptostreptococcus magnum; assay: Agar dilution MIC, anaerobes; type: cell-based; conditions: single isolates, anaerobic agar dilution
Fusobacterium nucleatum = assay: Agar dilution MIC, anaerobes; type: cell-based; conditions: single isolates, anaerobic agar dilution
VRE 6A (Ent. faecium 6A) = assay: MIC, agar incorporation method; conditions: Enterococcus, VRE, read-out: MIC VRE 6A
[13] = read-out: Geometric Mean of in vitro activity (MIC)

Question: For CC(=O)NC[C@H]1CN(c2ccc(N3CCOCC3)c(F)c2)C(=O)O1 [Linezolid], which MIC (MRSA 33) is on record?
Answer: 2 µg/mL (≈ 5.93 µM)

Question: What about the MIC [1] of the same compound?
Answer: 0.5 µg/mL (≈ 1.48 µM)

Question: And the MIC ([2]; Peptoniphilus asaccharolyticus)?
Answer: 0.5 µg/mL (≈ 1.48 µM)

Question: What about the “MIC Peptostreptococcus asaccharolyticus” value [2] of the same compound?
Answer: 1 µg/mL (≈ 2.96 µM)

Question: And the MIC50 (S. pneumoniae)?
Answer: 0.5 µg/mL (≈ 1.48 µM)

Question: And the MIC90 (S. pneumoniae)?
Answer: 2 µg/mL (≈ 5.93 µM)

Question: What about the MIC (S. pneumoniae; [13]) of the same compound?
Answer: 0.6 µg/mL (≈ 1.78 µM)

Question: What about the MIC (Clostridium camis) of the same compound?
Answer: 2 µg/mL (≈ 5.93 µM)

Question: What about the “ED50 (mg/kg body weight) PO” value (MRSA 562) of the same compound?
Answer: 4.56 mg/kg body weight

Question: What about the MIC ([3]; Parvimonas micra, read-out: MIC Peptostreptococcus micros) of the same compound?
Answer: 0.5 µg/mL (≈ 1.48 µM)

Question: What about the “MIC Peptostreptococcus micros” value [3] of the same compound?
Answer: 1 µg/mL (≈ 2.96 µM)

Question: What about the MIC [4] of the same compound?
Answer: 4 µg/mL (≈ 11.9 µM)

Question: What about the MIC50 (E. faecalis) of the same compound?
Answer: 4 µg/mL (≈ 11.9 µM)

Question: And the MIC90 (E. faecalis)?
Answer: 16 µg/mL (≈ 47.4 µM)

Question: What about the MIC (E. faecalis; [13]) of the same compound?
Answer: 4 µg/mL (≈ 11.9 µM)

Question: And the “concentration which would kill adherent bacteria” value [5]?
Answer: 32 µg/mL

Question: And the G.M. [6]?
Answer: 8 µg/mL

Question: What about the MIC (Fusobacterium montiferum) of the same compound?
Answer: 0.25 µg/mL (≈ 0.741 µM)

Question: And the MIC (Clostridium difficile)?
Answer: 2 µg/mL (≈ 5.93 µM)

Question: And the “Agar MIC” value [7]?
Answer: 2 µg/mL

Question: What about the MIC (S. aureus ATCC 25923) of the same compound?
Answer: 2 µg/mL (≈ 5.93 µM)

Question: And the MIC (Eubacterium leutum)?
Answer: 1 µg/mL (≈ 2.96 µM)

Question: And the MIC (Fusobacterium necrogenes)?
Answer: 0.5 µg/mL (≈ 1.48 µM)

Question: And the MIC (Strep. pyog. ATCC 19615)?
Answer: 2 µg/mL (≈ 5.93 µM)

Question: And the MIC (Prevotella intermedia; Prevotella intermedia, read-out: MIC Prevotella intermedia)?
Answer: 0.5 µg/mL (≈ 1.48 µM)

Question: And the “MIC Prevotella intermedia” value (Prevotella intermedia)?
Answer: 1 µg/mL (≈ 2.96 µM)

Question: And the Cmax [8]?
Answer: 12000 to 16000 ng/mL

Question: What about the MIC (S. pneum AB 34) of the same compound?
Answer: 4 µg/mL (≈ 11.9 µM)

Question: What about the MIC90 [9] of the same compound?
Answer: 2 to 4 µg/mL

Question: What about the MIC (Strep. pne. ATCC 6303) of the same compound?
Answer: 2 µg/mL (≈ 5.93 µM)

Question: And the G.M. [10]?
Answer: 20.587 µg/mL

Question: What about the MIC50 ([10]; Mycobacterium avium, 504 h, Middlebrook 7H10 agar, 21 days, read-out: MIC50) of the same compound?
Answer: 16 µg/mL (≈ 47.4 µM)

Question: What about the MIC90 ([10]; Mycobacterium avium, 504 h, Middlebrook 7H10 agar, 21 days, read-out: MIC90) of the same compound?
Answer: 64 µg/mL (≈ 190 µM)

Question: What about the MIC (P. acnes) of the same compound?
Answer: 0.5 µg/mL (≈ 1.48 µM)

Question: And the MIC (Ent. faecalis ATCC 29212)?
Answer: 2 µg/mL (≈ 5.93 µM)

Question: What about the MIC50 (G +ve bacteria) of the same compound?
Answer: 2 µg/mL (≈ 5.93 µM)

Question: What about the MIC90 (G +ve bacteria) of the same compound?
Answer: 4 µg/mL (≈ 11.9 µM)

Question: What about the MIC (MRSA 15187) of the same compound?
Answer: 1 µg/mL (≈ 2.96 µM)

Question: And the MIC [11]?
Answer: 1 µg/mL (≈ 2.96 µM)

Question: And the MIC (Porphyromonas gingivalis)?
Answer: 1 µg/mL (≈ 2.96 µM)

Question: What about the MIC ([12]; Peptostreptococcus, read-out: MIC Peptostreptococcus magnum) of the same compound?
Answer: 2 µg/mL (≈ 5.93 µM)

Question: What about the “MIC Peptostreptococcus magnum” value [12] of the same compound?
Answer: 1 µg/mL (≈ 2.96 µM)

Question: What about the MIC (Fusobacterium nucleatum; Fusobacterium nucleatum, read-out: MIC Fusobacterium nucleatum) of the same compound?
Answer: 0.5 µg/mL (≈ 1.48 µM)

Question: What about the “MIC Fusobacterium nucleatum” value (Fusobacterium nucleatum) of the same compound?
Answer: 1 µg/mL (≈ 2.96 µM)

Question: What about the MIC (VRE 6A (Ent. faecium 6A)) of the same compound?
Answer: 2 µg/mL (≈ 5.93 µM)
